These results are taken from US20230147257A1 (DONG-A ST CO., LTD., priority 2020, published 2023).

Like-named read-outs stand apart in the source and are kept apart here.

Holding throughout (assay type): cell-based
For experiment [1], the target named is T1, AhR (Homo sapiens, UniProt P35869).
T1 construct: host or cells: HepG2
T1 sequence (P35869 11-848): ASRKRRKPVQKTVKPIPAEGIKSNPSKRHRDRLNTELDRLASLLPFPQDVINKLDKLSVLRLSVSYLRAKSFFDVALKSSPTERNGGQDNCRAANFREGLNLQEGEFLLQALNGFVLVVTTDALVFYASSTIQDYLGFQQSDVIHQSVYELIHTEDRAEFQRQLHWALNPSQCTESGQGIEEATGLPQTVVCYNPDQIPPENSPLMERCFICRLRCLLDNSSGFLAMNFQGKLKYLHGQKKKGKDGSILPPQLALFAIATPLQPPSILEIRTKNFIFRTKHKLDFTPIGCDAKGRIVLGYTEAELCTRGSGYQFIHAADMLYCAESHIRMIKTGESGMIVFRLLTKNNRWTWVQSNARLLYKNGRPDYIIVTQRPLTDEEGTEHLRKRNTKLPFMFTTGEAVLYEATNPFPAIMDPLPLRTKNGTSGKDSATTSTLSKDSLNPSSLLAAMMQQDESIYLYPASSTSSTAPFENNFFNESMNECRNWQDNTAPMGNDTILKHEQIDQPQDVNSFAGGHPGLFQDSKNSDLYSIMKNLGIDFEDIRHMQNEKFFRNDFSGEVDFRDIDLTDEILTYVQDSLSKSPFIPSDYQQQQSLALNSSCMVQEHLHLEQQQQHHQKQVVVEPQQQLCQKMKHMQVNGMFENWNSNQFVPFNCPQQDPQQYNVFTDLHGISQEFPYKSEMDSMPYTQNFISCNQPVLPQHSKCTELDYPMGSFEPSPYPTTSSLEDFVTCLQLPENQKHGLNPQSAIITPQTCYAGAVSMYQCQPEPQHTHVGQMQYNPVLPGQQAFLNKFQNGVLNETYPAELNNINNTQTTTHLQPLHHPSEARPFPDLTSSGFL
The experiment is described as follows: In vitro assay 4: endogenous AhR activity assay (CYP1A1 and CYP1B1 mRNA, qRT-PCR, HepG2 cells). The conditions noted are these: TCDD 10 nM with compound 123 nM, 4 hours, mRNA relative to β-actin. Here is the method:
In Vitro Assay 4: Endogenous AhR Activity Assay
HepG2 cells were seeded in 12-well plate (3×10^5 cells/well). A day after seeding, the cells were treated with TCDD (10 nM) alone or with compounds (123 nM) for 4 hours. Total RNA was extracted using Trizol (Thermo Fisher Scientific). cDNA synthesis and quantitative RT-PCR (qRT-PCR) assays were performed using PrimeScript™ RT Master Mix (TAKARA) and TB Green™ Premix Ex Taq™ II (TAKARA) in accordance with manufacturer's instruction. For the measurement of endogenous AhR activity, relative mRNA levels of CYP1A1 and CYP1B1 were quantitated relative to β(beta)-actin mRNA by the comparative Ct (ΔΔCt) method. The percent inhibitions were calculated according to: […]
Background: In qPCR the cycle at which signal appears reflects the starting amount.

Experiment [2] concerns the target T1, AhR. The experiment is described as follows: In vitro assay 1: XRE-luciferase reporter assay, antagonism in human cell line (HepG2). The settings on record: HepG2 XRE-luciferase, 6 hours, read-out: Assay 1: AhR-Luc Human Antagonism (IC50). In a few lines: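 HepG2 cells carrying XRE-firefly luciferase (transient or stable) plus constitutive Nano-Luc control, stimulated 6 h with kynurenine (50 or 200 μM) with or without compound. Firefly/Nano-Luc ratio normalized to kynurenine-alone (maximum) and vehicle (minimum); IC50 by four-parameter nonlinear regression.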
In general terms: A reporter such as luciferase makes a cellular process visible.

The target in experiment [3] is T1, AhR. The experiment is described as follows: In vitro assay 3: XRE-luciferase reporter assay, agonism in human cell line (HepG2). The settings on record: HepG2 XRE-Luc, tryptophan free medium, test compound alone, 6 hours. The text has this: In Vitro XRE-Luciferase Reporter Assay (In Vitro Assay 1, 2, 3)
AhR activation leads the induction of target gene expression such as CYP1A1 and CYP1B1 by AhR binding to AhR-responsive DNA elements also known as xenobiotics responsive elements (XRE). The assay for measuring AhR activity herein is the luciferase assay using cell lines transfected with luciferase reporter plasmid containing XREs at the upstream of the reporter gene. Cells transfected with XRE-luciferase reporter (XRE-Luc) plasmid drive luciferase activity reflecting activation and inhibition of AhR in the cells. In addition to transfection with XRE-reporter vector, cells were co-transfected with Nano-luciferase reporter gene construct (Nano-Luc) containing constitutively active promoter as internal control. Kynurenine (an endogenous AhR agonist) was used to stimulate cells to test antagonistic properties of the compounds. The half-maximal inhibitory concentration (IC50) or half-maximal effective concentration (EC50) value was calculated using nonlinear regression (four parameters) with Prism8.0 software (GraphPad).
In Vitro Assay 3: Agonism in Human Cell Line
HepG2 (human hepatoma cell line) cells co-transfected with XRE-Luc and Nano-Luc plasmids were plated in tryptophan free medium containing 1% of dialyzed fetal bovine serum and incubated overnight at 37° C. in a CO2 incubator. After 24 hours, cells were treated for 6 hours with test compounds or not. Firefly luciferase and Nano-luciferase activity was measured using Nano-glo Luciferase kit (Promega) and relative luciferase activity (Firefly/Nano-Luc) was used to calculate EC50 values. As a positive control, cells were incubated with TCDD. (EC50 Values are grouped as A, B, C and D, whereby A: EC50<0.1 μM; B: 0.1<EC50<1.0 μM; C: 1.0<EC50<10 μM; D: EC50>10 μM)

[4] abbreviates: cells treated with kynurenine 200 μM (no *).
[5] abbreviates: read-out: Assay 3: AhR-Luc Human Agonism (EC50).
Where [6] appears, read: read-out: Assay 3: AhR-Luc Human Agonism (EC50, nM), class in brackets.
Setting [7] is: cells treated with kynurenine 50 μM (*).

One may read the inhibition as the share of the control response that was lost under treatment. A word on the IC50: it is the concentration needed to halve the response being measured. For `O=c1c2cc(-c3ccc(C(F)(F)F)cc3)nc(-c3cccnc3)c2ncn1[C@@H]1CCCC[C@@H]1O` [Example 16, 3-((1R,2S)-2-hydroxycyclohexyl)-8-(pyridin-3-yl)-6-(4-(trifluoromethyl)phenyl)pyrido[3,4-d]pyrimidin-4(3H)-one], the inhibition at 0.123 µM at AhR [1] (read-out: CYP1A1 (% Inhibition)) is 99.6%; on AhR [1] (read-out: CYP1B1 (% Inhibition)), 100%. Besides, at AhR [2] (setting [4]), the IC50 is less than 0.01 µM.
In general, EC50 refers to the concentration needed to bring the measured effect to its halfway point. On to `CC(CO)n1cnc2c(-c3cccnc3)nc(-c3ccc(C(F)(F)F)cc3)cc2c1=O` (stereo not shown) [Example 44, 3-(1-hydroxypropan-2-yl)-8-(pyridin-3-yl)-6-(4-(trifluoromethyl)phenyl)pyrido[3,4-d]pyrimidin-4(3H)-one], for which the EC50 on AhR [3] (setting [5]) is more than 30000 nM; on AhR [3] (setting [6]), more than 10000 nM. Besides, the IC50 at AhR [2] (setting [7]) is less than 0.01 µM.
In the case of `CC(CO)n1cnc2c(-c3cnn(C)c3)nc(-c3ccc(Cl)cc3)cc2c1=O` (stereo not shown) [Example 48, 6-(4-chlorophenyl)-3-(1-hydroxypropan-2-yl)-8-(1-methyl-1H-pyrazol-4-yl)pyrido[3,4-d]pyrimidin-4(3H)-one], the results for the EC50 at AhR [3] (setting [5]) and on AhR [3] (setting [6]) were more than 30000 nM and more than 10000 nM, respectively. Further, the IC50 at AhR [2] (setting [7]) is less than 0.01 µM.
Turning to `CC(CO)n1cnc2c(-c3cccnc3)nc(-c3ccc(OC(F)(F)F)cc3)cc2c1=O` (stereo not shown) [Example 49, 3-(1-hydroxypropan-2-yl)-8-(pyridin-3-yl)-6-(4-(trifluoromethoxy)phenyl)pyrido[3,4-d]pyrimidin-4(3H)-one], the EC50 on AhR [3] (setting [5]) was determined as 9660 nM. The IC50 on AhR [2] (setting [7]) is less than 0.01 µM.
Consider `CC(CO)n1cnc2c(-c3cccnc3)nc(-c3ccc(C(F)(F)F)nc3)cc2c1=O` (stereo not shown) [Example 50, 3-(1-hydroxypropan-2-yl)-8-(pyridin-3-yl)-6-(6-(trifluoromethyl)pyridin-3-yl)pyrido[3,4-d]pyrimidin-4(3H)-one], for which the EC50 at AhR [3] (setting [5]) was determined as 2050 nM. Moreover, on AhR [2] (setting [7]), the IC50 is less than 0.01 µM.
Take `CCC(CO)n1cnc2c(-c3cnn(C)c3)nc(-c3ccc(Cl)cc3)cc2c1=O` (stereo not shown) [Example 52, 6-(4-chlorophenyl)-3-(1-hydroxybutan-2-yl)-8-(1-methyl-1H-pyrazol-4-yl)pyrido[3,4-d]pyrimidin-4(3H)-one]: the 50% effective concentration (EC50) at AhR [3] (setting [5]) came to 290 nM. The half-inhibitory concentration (IC50) at AhR [2] (setting [7]) was less than 0.01 µM.
Consider `CCC(CO)n1cnc2c(-c3cccc(F)c3)nc(-c3ccc(Cl)cc3)cc2c1=O` (stereo not shown) [Example 55, 6-(4-chlorophenyl)-8-(3-fluorophenyl)-3-(1-hydroxybutan-2-yl)pyrido[3,4-d]pyrimidin-4(3H)-one], for which the EC50 at AhR [3] (setting [5]) was 1370 nM. At AhR [2] (setting [7]), the IC50 is less than 0.01 µM.
`O=c1c2cc(-c3ccc(C(F)(F)F)cc3)nc(-c3cccnc3)c2ncn1[C@H]1CC[C@H](O)CC1` [Example 57, 3-((1r,4r)-4-hydroxycyclohexyl)-8-(pyridin-3-yl)-6-(4-(trifluoromethyl)phenyl)pyrido[3,4-d]pyrimidin-4(3H)-one]: the EC50 at AhR [3] (setting [5]) was determined as 4480 nM. Besides, the IC50 on AhR [2] (setting [7]) is less than 0.01 µM.
For the molecule `CC(CO)N1CNc2c(cc(-c3ccc(C(F)(F)F)cc3)nc2-c2cnn(C)c2)C1=O` (stereo not shown) [Example 59, 3-(1-hydroxypropan-2-yl)-8-(1-methyl-1H-pyrazol-4-yl)-6-(4-(trifluoromethyl)phenyl)-2,3-dihydropyrido[3,4-d]pyrimidin-4(1H)-one], the EC50 on AhR [3] (setting [5]) is more than 30000 nM; on AhR [3] (setting [6]), more than 10000 nM. The IC50 at AhR [2] (setting [7]) was less than 0.01 µM.
For the molecule `O=c1c2cc(-c3ccc(Cl)cc3)nc(-c3cccnc3)c2ncn1CC(O)CO` (stereo not shown) [Example 67, 6-(4-chlorophenyl)-3-(2,3-dihydroxypropyl)-8-(pyridin-3-yl)pyrido[3,4-d]pyrimidin-4(3H)-one], the EC50 at AhR [3] (setting [5]) is more than 30000 nM; at AhR [3] (setting [6]), more than 10000 nM. Also, the IC50 on AhR [2] (setting [4]) was less than 0.01 µM.
Taken in the same sequence, the figures for `O=c1c2cc(-c3ccc(Cl)nc3)nc(-c3cccnc3)c2ncn1[C@@H]1CC[C@H](O)C1` [Example 71, 6-(6-chloropyridin-3-yl)-3-((1R,3S)-3-hydroxycyclopentyl)-8-(pyridin-3-yl)pyrido[3,4-d]pyrimidin-4(3H)-one] were more than 30000 nM, more than 10000 nM and 0.01 to 0.1 µM.
As for `CS(=O)(=O)CCn1cnc2c(-c3cccnc3)nc(-c3ccc(C(F)(F)F)cc3)cc2c1=O` [Example 76, 3-(2-(methylsulfonyl)ethyl)-8-(pyridin-3-yl)-6-(4-(trifluoromethyl)phenyl)pyrido[3,4-d]pyrimidin-4(3H)-one], the EC50 at AhR [3] (setting [5]) was more than 30000 nM; on AhR [3] (setting [6]), more than 10000 nM. Besides, at AhR [2] (setting [4]), the IC50 was less than 0.01 µM.
As to `CS(=O)(=O)CCn1cnc2c(-c3cccnc3)nc(-c3ccc(Cl)cc3)cc2c1=O` [Example 77, 6-(4-chlorophenyl)-3-(2-(methylsulfonyl)ethyl)-8-(pyridin-3-yl)pyrido[3,4-d]pyrimidin-4(3H)-one], the EC50 is more than 30000 nM on AhR [3] (setting [5]) and more than 10000 nM at AhR [3] (setting [6]). Moreover, the IC50 at AhR [2] (setting [4]) is less than 0.01 µM.
For the molecule `O=c1c2cc(-c3ccc(N4CCOCC4)cc3)nc(-c3cccnc3)c2ncn1CC(O)CO` (stereo not shown) [Example 82, 3-(2,3-dihydroxypropyl)-6-(4-morpholinophenyl)-8-(pyridin-3-yl)pyrido[3,4-d]pyrimidin-4(3H)-one], the EC50 on AhR [3] (setting [5]) is more than 30000 nM; at AhR [3] (setting [6]) it was more than 10000 nM. The IC50 on AhR [2] (setting [4]) was less than 0.01 µM.
With `CC(CNS(C)(=O)=O)n1cnc2c(-c3cccnc3)nc(-c3ccc(Cl)cc3)cc2c1=O` (stereo not shown) [Example 89, N-(2-(6-(4-chlorophenyl)-4-oxo-8-(pyridin-3-yl)pyrido[3,4-d]pyrimidin-3(4H)-yl)propyl)methanesulfonamide], the values for the concentration giving a half-maximal response (EC50) at AhR [3] (setting [5]) and on AhR [3] (setting [6]) were more than 30000 nM and more than 10000 nM, respectively. Besides, the IC50 at AhR [2] (setting [4]) is less than 0.01 µM.
`CS(=O)(=O)N1CCC(n2cnc3c(-c4cccnc4)nc(-c4ccc(Cl)cc4)cc3c2=O)CC1` [Example 94, 6-(4-chlorophenyl)-3-(1-(methylsulfonyl)piperidin-4-yl)-8-(pyridin-3-yl)pyrido[3,4-d]pyrimidin-4(3H)-one]: the EC50 on AhR [3] (setting [5]) was more than 30000 nM; at AhR [3] (setting [6]), more than 10000 nM. In addition, the IC50 on AhR [2] (setting [4]) is less than 0.01 µM.
Regarding `O=c1c2cc(-c3ccc(Cl)cc3)nc(-c3cccnc3)c2ncn1C1CCN(S(=O)(=O)C2CC2)CC1` [Example 95, 6-(4-chlorophenyl)-3-(1-(cyclopropylsulfonyl)piperidin-4-yl)-8-(pyridin-3-yl)pyrido[3,4-d]pyrimidin-4(3H)-one], the EC50 at AhR [3] (setting [5]) is more than 30000 nM; on AhR [3] (setting [6]), more than 10000 nM. Moreover, the IC50 on AhR [2] (setting [4]) is less than 0.01 µM.
